# “Also recorded” adds a separate entry of the source. Peptide text beside a SMILES is read from it. * marks the point of attachment. X1 = NC(=O)C12CC3CC(CC(N*)(C3)C1)C2
# Key:
# [1] = tested on: normal adult mice; test: Open field, time in the centre of the arena (anxiety); type: in vivo; details: 25 nmol/day, first five minutes of familiarization session
# Description: (§1) For the compound treatment, mice (8 animals/group) received subcutaneous implants of extended release depot pellets containing P21 or P22 at 25 nmol/day for 35 days of continuous dosing (Innovative Research of America, USA). For the control group (8 animals), pellets consisted of the carrier polymer only. Mice were anesthetized with 2.5% Avertin (0.38 ml for a 25 g animal). Under sterile conditions, pellets were implanted subcutaneously along the anterolateral aspect of the right shoulder with a precision trochar (Innovative Research of America). After recovery of anesthesia, animals were transferred to the animal colony. No complications associated with the implantation and treatment were observed. All procedures on animals were conducted in accordance with approved protocols from our Institutional Animal Welfare Committee.
# The test used was an adaptation of the procedure previously described by Sargolini and collaborators (Sargolini, F., et al. Behav Brain Res 138 (2003):153-63). The testing apparatus was a classic open field (i.e. a PVC square arena, 50×50 cm, with walls 40 cm high). The open field was placed in a part of the room separated from the experimentator with a black opaque curtain. […] Object discrimination was calculated as follows: OD=(time spent close to new object)/(time spent close to new object)+(time spent close to old object)×100
# [2] = tested on: adult hippocampal progenitors in the dentate gyrus; test: Neurogenesis in the DG (BrdU-positive and BrdU/NeuN-double-positive cells); type: in vivo, mice; details: 25 nmol/day for 35 days
# Description: as §1
# To investigate neurogenesis, BrdU (Sigma, USA) was given as two daily i.p. injections (100 mg/kg/dose) for five days starting on day 2 of compounds treatment.
# At the end of the behavioral experiment, animals were anesthetized with an overdose of sodium pentobarbital (120 mg/kg) and transcardially perfused with 0.1 M phosphate buffered saline (PBS). After perfusion, the brains were removed from the skull, the left hemisphere was immediately frozen for future biochemical analysis and the right hemisphere was immersion fixed in 4% paraformaldehyde in 0.1 M PBS for at least 24 hours at room temperature. Tissues were equilibrated and stored in 30% sucrose solution at 4° C. until sectioning. The brains were sectioned sagittaly on a freezing sliding microtome at 40 μm through the entire hippocampus and the sections were stored in glycol anti-freeze solution (Ethylene glycol, glycerol and 0.1 M PBS in 3:3:4 ratio) at −20° C. until further processing.
# For double labeling of BrdU and NeuN, brain sections were pretreated with 2 M HCl at 37° C. for 30 min and neutralized with 0.1 M borate buffer (pH 8.5) for 10 minutes. […]
# Neurogenesis in the dentate gyrus was evaluated by counting the number of BrdU-positive and BrdU/NeuN-double-positive cells in the dentate gyrus (DG). The number of positive cells was determined in every fifth section in a series of 40 μm sagittal sections throughout the DG using unbiased sterology. All BrdU-positive cells in the subgranular zone (SGZ) and granule cell layer (GCL) were counted using a fluorescent microscope (Nikon Eclipse 90i, Nikon Corporation, Japan). Double labeled cells were assessed by a confocal imaging system (D-Eclipse C1, Nikon Corporation). […] For each brain, at least 100 cells were counted based on coefficient of error determinations.
# [3] = tested on: dentate gyrus; test: Expression of synaptophysin and synapsin I in the DG (optical density); type: in vivo, mice; details: 25 nmol/day for 35 days
# Description: For double labeling of BrdU and NeuN, brain sections were pretreated with 2 M HCl at 37° C. for 30 min and neutralized with 0.1 M borate buffer (pH 8.5) for 10 minutes. Tissue sections were incubated first for 30 min with blocking buffer (4% normal goat serum+0.1% Tween-20 in PBS) and then overnight at 4° C. in the presence of BrdU (Millipore Corporation, USA) and NeuN (Millipore Corporation) antibodies diluted 1:400 and 1:100, respectively. To determine the integrity of presynaptic terminals, tissues were labeled with anti-synaptophysin (1:200; Clone SY38, Millipore Corporation) or anti-synapsin I (1:200; Stressgen Biotechnologies Corporation, Canada). The brain sections were incubated in primary antibody over night at 4° C., respectively. Alexa 488 and 594 (1:500; Invitrogen, USA) were used as secondary antibodies. All images were obtained using Nikon Eclipse 90i and D-Eclipse C1 microscopes (Nikon Corporation, Japan).
# For quantitative analysis of the expression of synaptophysin and synapsin I in DG, every tenth section in a series of 40 μm coronal sections throughout the hippocampus was analyzed. The entire area of GCL was outlined. Maximum projection images were then generated based on confocal z-stacks, and antibody staining was quantified by measuring the mean optical density (OD) with the help of NIH Image J program, version 1.32j (http://rsb.info.nih.gov/ij/).
# [4] = tested on: LIF-induced STAT3 phosphorylation at Tyr705 in HepG2 cells; test: LIF-induced STAT3 phosphorylation in HepG2 cells (Western blot); type: cell-based, human; details: 15 min
# Description: HepG2 cells were treated with different concentrations of P21 together with 0.25 nM LIF for 15 min, and then the STAT3 phosphorylation at Tyr705 (pY-STAT3) was determined by Western blots. The pY-STAT3 value was normalized to total STAT3 expression. Data are presented as percentages of the value from cells treated with 0.25 nM LIF alone (100%). *p<0.05; **p<0.01.
# To investigate the molecular mechanism of action of compound P21 in LIF signaling, HepG2 human hepatoma cell (ATCC, USA) at 80% confluence were treated with different concentrations of P21 and with 0.25 nM LIF (Peprotec, Inc., USA) for 15 min. The cells were lysed and subjected to Western blots developed with antibodies anti-phospho-Tyr 705 STAT3 and anti-STAT3 (Cell signaling Technology, USA).
# To investigate whether P21 affects LIF signaling pathway, HepG2 cells were treated with different concentrations of P21 from 0.01 to 1000 nM along with 0.25 nM LIF for 15 min, and then measured STAT3 phosphorylation by Western blots. […] In HepG2 cells, 10 nM of P21 inhibited ˜30% of LIF-induced phosphorylation of STAT3 (p<0.005, student t-test; FIG. 15).
# [5] = General examination (physical state, body weight, exploratory activity, swim speed, floating); type: in vivo, mice; details: 25 nmol/day for 35 days
structure (smiles),measurement,setting,value
"CC(=O)N[C@@H](CC(=O)O)C(=O)NCC(=O)NCC(=O)N[C@@H](CC(C)C)C(=O)NC12CC3CC(C1)CC(C(N)=O)(C3)C2 [Peptide P21, Ac-DGGL^AG-NH2] (Ac-DGGL-X1)",level of anxiety (time in the center of the open field),[1],spent more time in the center of the open field than control animals; also recorded: reduced anxiety level
same,BrdU positive cells in the DG (GCL and SGZ),[2],significantly increased; also recorded: significant increase
same,BrdU/NeuN positive cells in the DG (GCL),[2],significantly increased; also recorded: significant increase
same,synapsin I immunoreactivity in the GCL and MCL,[3],significantly promoted expression; also recorded: Significant increases
same,synaptophysin immunoreactivity in the GCL and MCL,[3],significantly promoted expression; also recorded: Significant increases
same,inhibition of LIF-induced phosphorylation of STAT3,"[4]; 10 nM P21, 0.25 nM LIF",~30%
same,"LIF-induced STAT3 phosphorylation, concentration dependence","[4]; 0.01 to 1000 nM P21, 0.25 nM LIF",dose-dependent manner; also recorded: inhibited slightly in a dose-dependent manner
same,floating behavior in the water maze task (sign of depression or locomotor impairment),[5],no floating behavior was observed
same,swim speed,[5]; water maze,no alteration; also recorded: did not induce any effect

# From patent US8592374B2, “Neurotrophic peptides” (Research Foundation for Mental Hygiene, Inc., priority 2007, dated 2013)
